Measurements: ChEMBL document CHEMBL1201862, “PubChem BioAssay data set” (2004)
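These data come from cells grown in 96-well plates and exposed to compound for 48 hours at five concentrations. The concentration for 50% growth inhibition is given as GI50.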 Active and inactive are the calls of the source. No stated cut-off is given here; in the data, active = GI50 up to about 1.1 µM and inactive = higher.

Columns and labels:
Test in all cases: NCI-60 cell line screen, 48 h
OVCAR-5 = tested on: OVCAR-5
HCT-15 = tested on: HCT-15
EKVX = tested on: EKVX
SN12C = tested on: SN12C
HCT-116 = tested on: HCT-116
UACC-257 = tested on: UACC-257
MCF7 = tested on: MCF7
NCI-H522 = tested on: NCI-H522
UACC-62 = tested on: UACC-62
OVCAR-3 = tested on: OVCAR-3
NCI-H23 = tested on: NCI-H23
IGROV-1 = tested on: IGROV-1
MDA-MB-231 = tested on: MDA-MB-231
CAKI-1 = tested on: CAKI-1
SR = tested on: SR
KM12 = tested on: KM12
BT-549 = tested on: BT-549
LOX IMVI = tested on: LOX IMVI
SK-OV-3 = tested on: SK-OV-3
786-0 = tested on: 786-0

Row | SMILES | GI50 (OVCAR-5) | GI50 (HCT-15) | GI50 (EKVX) | GI50 (SN12C) | GI50 (HCT-116) | GI50 (UACC-257) | GI50 (MCF7) | GI50 (NCI-H522) | GI50 (UACC-62) | GI50 (OVCAR-3) | GI50 (NCI-H23) | GI50 (IGROV-1) | GI50 (MDA-MB-231) | GI50 (CAKI-1) | GI50 (SR) | GI50 (KM12) | GI50 (BT-549) | GI50 (LOX IMVI) | GI50 (SK-OV-3) | GI50 (786-0)
1 | Cc1c2ccccc2c(C2C3C(=O)N(c4cccc5ccccc45)C(=O)C3ON2Cc2ccc(CC(N)=O)cc2)c2ccccc12 (stereo not given) | 24.9 µM (inactive) | 18.4 µM | 14.2 µM (inactive) | 15.3 µM (inactive) | 18.2 µM (inactive) | 12.2 µM (inactive) | 14.8 µM (inactive) | 18.9 µM (inactive) | 14.4 µM (inactive) | 18.8 µM (inactive) | 25.1 µM (inactive) | 17.7 µM (inactive) | 23.3 µM (inactive) | 29.3 µM (inactive) | 14 µM (inactive) | 18.2 µM (inactive) | 30.2 µM (inactive) | 18.9 µM (inactive) | 30.8 µM (inactive) | 24.4 µM (inactive)
2 | N#Cc1c(-c2ccc([N+](=O)[O-])cc2)cc(-c2ccc(Nc3ccnc4cc(Cl)ccc34)cc2)nc1N | 30.8 µM (inactive) | 2.76 µM | 16.9 µM (inactive) | 4.81 µM (inactive) | 2.3 µM (inactive) | 26.5 µM (inactive) | 1.61 µM (inactive) | 3.85 µM (inactive) | 26.7 µM (inactive) | 6.67 µM (inactive) | 25.2 µM (inactive) | 3.22 µM (inactive) | 16.9 µM (inactive) | 20.9 µM (inactive) | 0.399 µM (active) | 2.38 µM (inactive) | 51.1 µM (inactive) | 1.45 µM (inactive) | 32 µM (inactive) | 0.989 µM (active)
3 | COc1ccc(C2c3cc4c(cc3OC(NNc3ccccc3)C2C)OCO4)cc1 (stereo not given) | 7.33 µM (inactive) | 1.05 µM | 3.75 µM (inactive) | 11 µM (inactive) | 4.44 µM (inactive) | 5.79 µM (inactive) | 4.04 µM (inactive) | 2.77 µM (inactive) | 4.92 µM (inactive) | 4.82 µM (inactive) | 13.4 µM (inactive) | 7.31 µM (inactive) | 23.2 µM (inactive) | 5.89 µM (inactive) | 1.71 µM (inactive) | 2.91 µM (inactive) | 20.4 µM (inactive) | 16.6 µM (inactive) | > 100 µM (inactive) | 22.1 µM (inactive)
4 | c1ccc2c(c1)N=c1ccccc1=P21c2ccccc2Nc2ccccc21 | 0.421 µM (active) | 17.2 µM | 5.04 µM (inactive) | 1.5 µM (inactive) | 0.242 µM (active) | 0.39 µM (active) | 0.457 µM (active) | 0.216 µM (active) | 0.611 µM (active) | 0.301 µM (active) | 0.304 µM (active) | 0.352 µM (active) | 2.69 µM (inactive) | 2.4 µM (inactive) | 0.31 µM (active) | 0.132 µM (active) | 0.372 µM (active) | 0.953 µM (active) | 0.265 µM (active) | 1.03 µM (active)
5 | COc1ccc(CN(Cc2ccc(OC)cc2)C(=O)CC2(O)C=CCC2)cc1 (stereo not given) | > 100 µM (inactive) | 78.7 µM | 46.1 µM (inactive) | > 100 µM (inactive) | 55.3 µM (inactive) | 43.4 µM (inactive) | 43.9 µM (inactive) | 32.7 µM (inactive) | 57.7 µM (inactive) | 98.2 µM (inactive) | > 100 µM (inactive) | > 100 µM (inactive) | > 100 µM (inactive) | 46.7 µM (inactive) | 36.1 µM (inactive) | 45.9 µM (inactive) | > 100 µM (inactive) | > 100 µM (inactive) | > 100 µM (inactive) | > 100 µM (inactive)
